Drawing on patent US8084481B2, “Substituted arylimidazolone and triazolone as inhibitors of vasopressin receptors” (Bayer Pharma Aktiengesellschaft, priority 2006, dated 2011), this text covers IC50 for 27 molecules.

Assay [1] has as its target T1, human V2 receptor (Homo sapiens, UniProt P30518).
T1 construct: expressed in transfected cells; host or cells: CHO K1 (ATCC), constitutively expressing a modified aequorin and stably co-transfected with promiscuous G-alpha-16
Description: Cellular in vitro test for determination of the vasopressin receptor activity (aequorin luminescence, CHO cells), human V2. Format: cell-based. As to conditions: cell line transfected with the human V2 receptor, antagonism of [Arg8]-vasopressin, read-out: IC50 hV2. An excerpt:
(§1) B-1. Cellular In Vitro Test for Determination of the Vasopressin Receptor Activity
(§2) The identification of agonists and antagonists of the V1a- and V2-vasopressin receptors in man and the rat and the quantification of the activity of the compounds according to the invention are effected by means of recombinant cell lines. These cells are originally derived from the ovarian epithelial cells of the hamster (Chinese Hamster Ovary, CHO K1, ATCC: American Type Culture Collection, Manassas, Va. 20108, USA). The test cell lines constitutively express a modified form of the calcium-sensitive photoprotein aequorin, which after reconstitution with the cofactor coelenterazine emits light on an increase in the free calcium concentrations [Rizzuto R, Simpson A W, Brini M, Pozzan T, Nature 358, 325-327 (1992)]. In addition, the cells are stably transfected with human or rat V1a- or V2 receptors. In the case of the Gs-coupled V2 receptors, the cells are stably transfected with a further gene which codes for the promiscuous Gα16-Protein [Amatruda T T, Steele D A, Slepak V Z, Simon M I, Proceedings of the National Academy of Science USA 88, 5587-5591 (1991)]. The resulting vasopressin receptor test cells react to stimulation of the recombinantly expressed vasopressin receptors with an intracellular release of calcium ions, which can be quantified by the resulting aequorin luminescence with a suitable luminometer [Milligan G, Marshall F, Rees S, Trends in Pharmacological Sciences 17, 235-237 (1996)].
(§3) On the day before the text, the cells are plated out in culture medium (DMEM, 10% FCS, 2 mM glutamine, 10 mM HEPES) in 384-well microtitre plates and kept in a cell incubator (96% atmospheric humidity, 5% v/v CO2, 37° C.). On the test day, the culture medium is replaced by a Tyrode solution (140 mM NaCl, 5 mM KCl, 1 mM MgCl2, 2 mM CaCl2, 20 mM glucose, 20 mM HEPES) which in addition contains the cofactor coelenterazine (50 μM), and the microtitre plate is then incubated for a further 3-4 hours. The test substances in various concentrations are placed beforehand in the wells of the microtitre plate for 10 to 20 minutes, before the agonist [Arg^8]-vasopressin is added and the resulting light signal immediately measured in the luminometer. The IC50 values are calculated by means of the computer program GraphPad PRISM (Version 3.02).

The target of assay [2] is T2, human V1a receptor (Homo sapiens, UniProt P37288).
T2 construct: expressed in transfected cells; host or cells: CHO K1 (ATCC), constitutively expressing a modified aequorin
Description: Cellular in vitro test for determination of the vasopressin receptor activity (aequorin luminescence, CHO cells), human V1a. The format is cell-based. As to conditions: cell line transfected with the human V1a receptor, antagonism of [Arg8]-vasopressin, read-out: IC50 hV1a.
From the text: as §1, §2, §3

A value given as a limit tells only on which side of the number the result lay.

T1 sequence (P30518 whole entry): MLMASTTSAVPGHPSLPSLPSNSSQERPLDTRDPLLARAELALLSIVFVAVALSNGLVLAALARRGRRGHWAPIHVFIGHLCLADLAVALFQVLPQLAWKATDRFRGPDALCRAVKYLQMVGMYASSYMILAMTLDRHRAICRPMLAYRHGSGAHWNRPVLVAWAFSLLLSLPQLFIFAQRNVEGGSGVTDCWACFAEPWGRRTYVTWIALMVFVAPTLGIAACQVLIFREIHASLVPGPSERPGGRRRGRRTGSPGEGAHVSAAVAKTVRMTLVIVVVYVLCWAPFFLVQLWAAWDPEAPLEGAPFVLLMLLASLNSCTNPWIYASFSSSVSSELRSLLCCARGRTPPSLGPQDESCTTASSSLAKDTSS
T2 sequence (P37288 whole entry): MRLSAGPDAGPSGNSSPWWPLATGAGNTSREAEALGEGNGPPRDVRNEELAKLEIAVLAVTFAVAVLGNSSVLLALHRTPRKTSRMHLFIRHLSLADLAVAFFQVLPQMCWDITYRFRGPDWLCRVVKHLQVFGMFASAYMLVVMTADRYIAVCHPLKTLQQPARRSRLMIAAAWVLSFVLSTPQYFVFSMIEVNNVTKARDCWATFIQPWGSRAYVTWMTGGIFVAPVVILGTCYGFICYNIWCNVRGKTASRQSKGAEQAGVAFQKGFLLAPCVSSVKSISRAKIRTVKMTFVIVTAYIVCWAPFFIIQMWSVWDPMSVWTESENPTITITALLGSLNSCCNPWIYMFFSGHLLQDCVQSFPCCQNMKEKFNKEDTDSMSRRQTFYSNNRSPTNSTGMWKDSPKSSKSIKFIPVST

In the case of `C/C=C/n1c(-c2ccc(Cl)cc2)nn(CC(=O)NCc2cccc(C(F)(F)F)c2)c1=O` [Example 457, 2-{3-(4-chlorophenyl)-5-oxo-4-[(1E)-prop-1-en-1-yl]-4,5-dihydro-1H-1,2,4-triazol-1-yl}-N-[3-(trifluoromethyl)benzyl]-acetamide], the figures for the IC50 in assay [1] and in assay [2] were 29 nM and 43 nM, respectively.

As for `CC(C)(NC(=O)Cn1nc(-c2ccc(Cl)cc2)n(C2CC2)c1=O)c1cccc(C(F)(F)F)c1` [Example 75, 2-[3-(4-chlorophenyl)-4-cyclopropyl-5-oxo-4,5-dihydro-1H-1,2,4-triazol-1-yl]-N-{1-methyl-1-[3-(trifluoromethyl)phenyl]ethyl}acetamide], the IC50 in assay [1] is 26 nM; in assay [2], 390 nM.

As for `O=C(Cn1nc(-c2ccc(Cl)cc2)n(CC(O)C(F)(F)F)c1=O)NC(C(=O)N1CCOCC1)c1cccc(C(F)(F)F)c1` (stereo not drawn) [Example 511, 2-[3-(4-chlorophenyl)-5-oxo-4-(3,3,3-trifluoro-2-hydroxypropyl)-4,5-dihydro-1H-1,2,4-triazol-1-yl]-N-{2-morpholin-4-yl-2-oxo-1-[3-(trifluoromethyl)phenyl]ethyl}-acetamide], the IC50 came to 11 nM in assay [1] and 4 nM in assay [2].

Take `O=C(Cn1nc(-c2ccc(Cl)cc2)n(CC(O)C(F)(F)F)c1=O)NCCc1ccccc1OC(F)(F)F` (stereo not drawn) [Example 359]: the values for the IC50 in assay [1] and in assay [2] were 9 nM and 19 nM, respectively.

For `CC(C)Cn1c(-c2ccccc2-c2ccccc2)nn(CC(=O)NCc2cccc(C(F)(F)F)c2)c1=O` [Example 151], the IC50 in assay [1] came out at 930 nM; in assay [2], 3400 nM.

On to `Cc1ccc(-c2nn(CC(=O)NC(C)(C)c3cccc(C(F)(F)F)c3)c(=O)n2Cc2ccccc2F)s1` [Example 219], for which the IC50 stood at 9 nM in assay [1] and 90 nM in assay [2].

Regarding `CC(C)Cn1c(-c2ccc(Cl)s2)nn(CC(=O)NCc2ccccc2C(F)(F)F)c1=O` [Example 63], the IC50 in assay [1] was > 10000 nM; in assay [2] it was 38 nM.

`COc1cc(Cl)ccc1-c1nn(CC(=O)NCc2ccccc2C(F)(F)F)c(=O)n1Cc1ccccc1F` [Example 227]: the concentration for half-maximal inhibition (IC50) in assay [1] was 37 nM; in assay [2] it was 8 nM.

For `COCCn1c(-c2ccc(Cl)cc2)nn(CC(=O)NC(C(=O)N(C)C)c2cccc(C(F)(F)F)c2)c1=O` (stereo not drawn) [Example 348], the concentration for half-maximal inhibition (IC50) in assay [1] was determined as 217 nM; in assay [2], 4 nM.

Consider `CN(C)C(=O)c1cccc(Cn2c(-c3ccc(Cl)cc3)nn(CC(=O)NC(C)(C)c3cccc(C(F)(F)F)c3)c2=O)c1` [Example 475, 3-(3-(4-chlorophenyl)-1-[2-(1-methyl-1-[3-(trifluoromethyl)phenyl]ethylamino)-2-oxoethyl]-5-oxo-1,5-dihydro-4H-1,2,4-triazol-4-ylmethyl)-N,N-dimethylbenzamide], for which the IC50 worked out at 20 nM in assay [1] and 328 nM in assay [2].

Regarding `COc1cc(Cl)ccc1-c1nn(CC(=O)NC(C)(C)c2cccc(C(F)(F)F)c2)c(=O)n1Cc1ccccc1F` [Example 216, 2-[3-(4-chloro-2-methoxyphenyl)-4-(2-fluorobenzyl)-5-oxo-4,5-dihydro-1H-1,2,4-triazol-1-yl]-N-[1-methyl-1-(3-trifluoromethyl-phenyl)ethyl]-acetamide], the IC50 in assay [1] was 6 nM; in assay [2], 73 nM.

Regarding `Cc1c(CNC(=O)Cn2nc(-c3ccc(Cl)cc3)n(C3CC3)c2=O)cccc1C(F)(F)F` [Example 325], the half-inhibitory concentration (IC50) in assay [1] is 28 nM; in assay [2], 107 nM.

Take `CC(C)(NC(=O)Cn1nc(-c2ccc(Cl)cc2)n(CC(=O)O)c1=O)c1cccc(C(F)(F)F)c1` [Example 467, 3-(4-chlorophenyl)-1-[2-(1-methyl-1-[3-(trifluoromethyl)phenyl]ethylamino)-2-oxoethyl]-5-oxo-1,5-dihydro-4H-1,2,4-triazol-4-yl-acetic acid]: the results for the IC50 in assay [1] and in assay [2] were 26 nM and 439 nM, respectively.

With `CSc1ccccc1CNC(=O)Cn1nc(-c2ccc(Cl)cc2)n(Cc2ccccc2F)c1=O` [Example 394, 2-[3-(4-chlorophenyl)-4-(2-fluorobenzyl)-5-oxo-4,5-dihydro-1H-1,2,4-triazol-1-yl]-N-[2-(methylthio)benzyl]-acetamide], the IC50 in assay [1] and in assay [2] was 19 nM each time.

Regarding `O=C(Cn1nc(-c2ccc(Cl)cc2)n(Cc2ccc(F)cc2)c1=O)NCc1cccc(C(F)(F)F)c1` [Example 143], the IC50 in assay [1] amounted to 6 nM; in assay [2], 960 nM.

`CC(C)(NC(=O)Cn1nc(-c2ccc(Cl)cc2)n(Cc2cccc(C(=O)O)c2)c1=O)c1cccc(C(F)(F)F)c1` [Example 471, 3-(3-(4-chlorophenyl)-1-[2-(1-methyl-1-[3-(trifluoromethyl)phenyl]ethylamino)-2-oxoethyl]-5-oxo-1,5-dihydro-4H-1,2,4-triazol-4-ylmethyl)-benzoic acid]: the IC50 stood at 2 nM in assay [1] and 39 nM in assay [2].

Consider `CC(C)(NC(=O)Cn1nc(-c2ccc(Cl)cc2)n(Cc2cccc(F)c2)c1=O)c1cccc(C(F)(F)F)c1` [Example 433, 2-[3-(4-chlorophenyl)-4-(3-fluorobenzyl)-5-oxo-4,5-dihydro-1H-1,2,4-triazol-1-yl]-N-1-methyl-1-[3-(trifluoromethyl)phenyl]ethyl-acetamide], for which the IC50 in assay [1] turned out to be 9 nM; in assay [2], 199 nM.

For `COc1ccc(Cn2c(-c3ccc(Cl)cc3)nn(CC(=O)NC(C)(C)c3cccc(C(F)(F)F)c3)c2=O)cc1` [Example 29], the IC50 in assay [1] came out at 9 nM; in assay [2] it was 170 nM.

For the molecule `CC(NC(=O)Cn1nc(-c2ccc(Cl)cc2)n(C2CC2)c1=O)c1ccccc1C(F)(F)F` (stereo not drawn) [Example 28], the IC50 in assay [1] was determined as 180 nM; in assay [2], 30 nM.

Turning to `Cc1c(-c2ccc(Cl)cc2)n(C2CC2)c(=O)n1CC(=O)N[C@@H](C)c1cccc2ccccc12` [Example 207], the IC50 in assay [1] stood at 63 nM; in assay [2], 230 nM.

With `CC(C(=O)NC(C)(C)c1cccc(C(F)(F)F)c1)n1cc(-c2ccc(Cl)cc2)n(C2CC2)c1=O` (stereo not drawn) [Example 214], the figures for the IC50 in assay [1] and in assay [2] were 180 nM and 6300 nM, respectively.

Turning to `CC(C)(NC(=O)Cn1nc(-c2ccc(Cl)cc2)n(CC(=O)C(F)(F)F)c1=O)c1cccc(C(F)(F)F)c1` [Example 489, 2-[3-(4-chlorophenyl)-5-oxo-4-(3,3,3-trifluoro-2-oxopropyl)-4,5-dihydro-1H-1,2,4-triazol-1-yl]-N-{1-methyl-1-[3-(trifluoromethyl)phenyl]ethyl}-acetamide], the figures for the IC50 in assay [1] and in assay [2] were 2 nM and 35 nM, respectively.

On to `CS(=O)(=O)c1ccccc1CNC(=O)Cn1nc(-c2ccc(Cl)cc2)n(Cc2ccccc2F)c1=O` [Example 482, 2-[3-(4-chlorophenyl)-4-(2-fluorobenzyl)-5-oxo-4,5-dihydro-1H-1,2,4-triazol-1-yl]-N-[2-(methylsulphonyl)benzyl]-acetamide], for which the half-maximal inhibitory concentration (IC50) came to 250 nM in assay [1] and 9 nM in assay [2].

For the molecule `CCC(=O)Cn1c(-c2ccc(Cl)cc2)nn(CC(=O)NC(C)(C)c2cccc(C(F)(F)F)c2)c1=O` [Example 443, 2-[3-(4-chlorophenyl)-5-oxo-4-(2-oxobutyl)-4,5-dihydro-1H-1,2,4-triazol-1-yl]-N-1-methyl-1-[3-(trifluoromethyl)phenyl]ethyl-acetamide], the IC50 in assay [1] was 23 nM; in assay [2] it was 93 nM.

As to `COc1ccccc1CCNC(=O)Cn1nc(-c2ccc(Cl)cc2)n(C2CC2)c1=O` [Example 159], the values for the half-inhibitory concentration (IC50) in assay [1] and in assay [2] were 420 nM and 440 nM, respectively.

For the molecule `Cc1csc(-c2nn(CC(=O)NCc3cccc(C(F)(F)F)c3)c(=O)n2CC(C)C)c1Cl` [Example 496, 2-[3-(3-chloro-4-methyl-2-thienyl)-4-isobutyl-5-oxo-4,5-dihydro-1H-1,2,4-triazol-1-yl]-N-[3-(trifluoromethyl)phenylmethyl]-acetamide], the IC50 in assay [1] is 576 nM; in assay [2], 166 nM.

In the case of `CC(C)(NC(=O)Cn1nc(-c2ccc(Cl)cc2Cl)n(C2CC2)c1=O)c1cccc(C(F)(F)F)c1` [Example 230], the 50% inhibitory concentration (IC50) in assay [1] stood at 83 nM; in assay [2], 783 nM.
